Assay results published in patent US20180325117A1, “PROBIOTIC COMPOSITIONS AND USES THEREOF” (priority 2015, published 2018).

Legend:
Type in all cases: in vivo
Mastitis = experiment: Teat spray of lactating dairy cows: somatic cell count and Mastitis; conditions: 210 lactating cows
Description: The efficacy of iodine versus D+t128 in reducing the presence of Mastitis was studied. […] 210 lactating dairy cows were milked twice a day for four weeks. The somatic cell count (SCC) of the herd at the beginning of the test period was 263,000/ml, as shown in the two right-hand columns of the top panel of FIG. 21. The standard protocol using iodine was as follows: prior to each milking, the teats of the dairy cows were sprayed with 0.5% iodine. After each milking, the teats of the dairy cows were sprayed with 1.0% iodine. Mastitis was evident on 27 of the cows (see bottom panel of FIG. 21). Treatment with iodine was then stopped, and D+t128 was used to treat the teats of the cows. Prior to each milking, the teats of the dairy cows were sprayed with 1.25 ounces of D+t128 at a dilution of 1:128. After each milking, the teats of the dairy cows were sprayed with 1.25 ounces of D+t128 at a dilution of 1:128. At the end of the test period, the SSC had decreased from 263,000/ml to 120,000/ml in the herd treated with D+t128 (see two right-hand columns of the top panel of FIG. 21). The lower the SSC, the healthier the cow; the lower SSC reading correlates with the reduced number of cows with Mastitis. The number of cows with Mastitis had decreased from 27 to 12 (see two right-hand columns of bottom panel of FIG. 21). The SSC values are an average of all milk obtained from the 210 lactating cows. […]

hairy wart and foot rot = experiment: Hoof spray of lactating cows: lameness, hairy wart and foot rot
Clostridial scours = experiment: Swine gut health: scours on test farm; conditions: total population of 3,850 swine; chlorine dioxide standard water protocol, then W+ 1:6,000 in water lines
Experimental: Scours (dysentery) is a common ailment in swine and is symptomatic of poor gut health (gastrointestinal tract health). […] Column (B) is the number of swine (397) that were infected with scours while on a standard water protocol of chlorine dioxide to prevent biofilm in the water lines. The addition of chlorine dioxide was stopped and W+ (at a dilution of 1:6,000) was added to the water lines, the number of swine with scours was reduced to 23 (Column (C)), a 94% reduction in the number of swine with Clostridial scours.

turkeys [1] = experiment: Turkey weight versus barn standard and mortality, six barns
Description: A common practice among commercial turkey growing facilities is to compare the weight gain of their flocks against a standard that is based on the performance of the grower's previous flocks. The grower has a standard for each barn, or group of barns, based on their recorded history. […] The flocks in the barns being fed W+ in their water (Barns-055, Barn-043, and Barn-025) exceeded standard weights by 11.7%, while the barns where the turkeys were fed water with chlorine dioxide (Barns-041, Barn-047, and Barn-045) were −7.6% compared to standard weights. The y-axis represents % deviation from a standard (Std)(average for each barn), and the x-axis represents data obtained from turkeys in six different barns (approximately 17,000 turkeys per barn).

turkeys [2] = experiment: Turkey mortality with water additive, flocks of 50,000 turkeys; set-up: mortality cumulative total per group: concentration or dose not given beside the values
Description: The mortality of the flock of 50,000 turkeys that consumed water with chlorine dioxide was 6.5% as compared to 3% for a flock of 50,000 turkeys consuming water with W+. The y-axis of FIG. 13 represents the cumulative total mortality (%), and the x-axis represents a 19-week period during which the turkeys were observed. The top dotted line represents a flock (of 50,000 turkeys) with chlorine dioxide added to their water. The middle dotted line represents a flock (of 50,000 turkeys) that for four weeks consumed water treated with chlorine dioxide (5 ppm). After four weeks, the water additive was changed to W+ diluted 1:10,000 (note the reduced slope of the mortality curve at week 5). The bottom solid line represents a flock (of 50,000 turkeys) that was fed water with W+.

II [iodine]
somatic cell count (SCC) of the herd (Mastitis; iodine protocol = beginning of test period, D+t128 1:128 teat spray before and after each milking = end of 28-day test period): 263,000 /ml | number of cows with Mastitis (Mastitis; iodine protocol = start, D+t128 1:128 = finish of 28-day test period): 27

O=S(=O)([O-])[O-].[Cu+2] [Copper-Sulphate]
percentage of lame cows (hairy wart and foot rot; herd of 500 lactating cows, Copper-Sulphate spray = T0 start, D+h100 1:100 spray = day 35): over 35% | cows with swelling indicating new hairy wart formation (hairy wart and foot rot; start of test period, prior Copper-Sulphate spray, data not shown): 60%

[O][Cl+][O-] [chlorine dioxide]
number of swine infected with scours (Clostridial scours): 397 | mortality rate (average) (turkeys [1]; FIG. 23, turkeys fed water with additive): 12.3% | deviation from standard weights (turkeys [1]; three barns per water additive, approximately 17,000 turkeys per barn, FIG. 14): −7.6% | mortality cumulative total per group (turkeys [2]; Week 1): 0.74% | mortality cumulative total per group (turkeys [2]; Week 2): 1.45% | mortality cumulative total per group (turkeys [2]; Week 3): 1.84% | mortality cumulative total per group (turkeys [2]; Week 4): 2.15% | mortality cumulative total per group (turkeys [2]; Week 5): 3.52% | mortality cumulative total per group (turkeys [2]; Week 6): 3.97% | mortality cumulative total per group (turkeys [2]; Week 7): 4.22% | mortality cumulative total per group (turkeys [2]; Week 8): 4.46% | mortality cumulative total per group (turkeys [2]; Week 9): 4.62% | mortality cumulative total per group (turkeys [2]; Week 10): 4.79% | mortality cumulative total per group (turkeys [2]; Week 11): 5.01% | mortality cumulative total per group (turkeys [2]; Week 12): 5.14% | mortality cumulative total per group (turkeys [2]; Week 13): 5.29% | mortality cumulative total per group (turkeys [2]; Week 14): 5.46% | mortality cumulative total per group (turkeys [2]; Week 15): 5.63% | mortality cumulative total per group (turkeys [2]; Week 16): 5.82% | mortality cumulative total per group (turkeys [2]; Week 17): 6.05% | mortality cumulative total per group (turkeys [2]; Week 18): 6.29% | mortality cumulative total per group (turkeys [2]; Week 19): 6.54% | mortality cumulative total per group (turkeys [2]; Week 20): 6.84% | mortality cumulative total per group (turkeys [2]; Week 21): 6.74% | mortality of the flock (cumulative total) (turkeys [2]; flock of 50,000 turkeys, FIG. 13, 19-week period, W+ 1:10,000, chlorine dioxide 5 ppm in water): 6.5%
